Holding throughout (type): in vivo
Common to all, as to conditions: 250 g/ha, evaluated after 13 days, five-point scale

Test [1] has as its system AMAPA. The experiment in a line: Post-emergence herbicidal glasshouse test. The method, then:
[Worded in the source for another organism; this organism is reported under the same test.] (§1) Seeds of a variety of test species are sown in standard soil in pots Amaranthus retoflexus (AMARE), Echinochloa crus-galli (ECHCG), Setaria faberi (SETFA)). After cultivation for one day (pre-emergence) or after 8 days cultivation (post-emergence) under controlled conditions in a glasshouse (at 24/16° C., day/night; 14 hours light; 65% humidity), the plants are sprayed with an aqueous spray solution derived from the formulation of the technical active ingredient in acetone/water (50:50) solution containing 0.5% Tween 20 (polyoxyethelyene sorbitan monolaurate, CAS RN 9005-64-5). Compounds are applied at 250 g/ha unless otherwise stated. The test plants are then grown in a glasshouse under controlled conditions in a glasshouse (at 24/16° C., day/night; 14 hours light; 65% humidity) and watered twice daily. After 13 days for pre and post-emergence, the test is evaluated for the percentage damage caused to the plant. The biological activities are shown in the following table on a five-point scale (5=81-100%; 4=61-80%; 3=41-60%; 2=21-40%; 1=0-20%).

Test [2] has as its system IPOHE. The experiment in a line: Post-emergence herbicidal glasshouse test. As for the experimental part: as §1
The test system of test [3] is Echinochloa crus-galli (ECHCG). The experiment in a line: Post-emergence herbicidal glasshouse test. The method, then:
as §1

Test [4] has as its system Amaranthus retoflexus (AMARE). The experiment in a line: Post-emergence herbicidal glasshouse test. As for the experimental part: as §1
Test [5] relates to AMAPA. The experiment in a line: Pre-emergence herbicidal glasshouse test. The method, then:
[Worded in the source for another organism; this organism is reported under the same test.] as §1

Test [6] deals with IPOHE. The experiment in a line: Pre-emergence herbicidal glasshouse test. The method, then: as §1
The test system of test [7] is Echinochloa crus-galli (ECHCG). The experiment in a line: Pre-emergence herbicidal glasshouse test. As for the experimental part:
as §1

For test [8], the system named is Amaranthus retoflexus (AMARE). The experiment in a line: Pre-emergence herbicidal glasshouse test. As for the experimental part: as §1

The values that follow come from patent US20250243189A1, “HERBICIDAL IMIDAZOLE-CONTAINING COMPOUNDS” (SYNGENTA CROP PROTECTION AG, priority 2022, published 2025).

SMILES strings stand for the structures.

For the compound `FC(F)(F)c1cn(Cc2ncc(Cl)cn2)c(-c2sccc2Cl)n1` [Compound 1.002], the “percentage damage caused to the plant, AMAPA” value was 1 (1=0-20%) in the test on AMAPA [1] and 2 (2=21-40%) in the test with AMAPA [5]. Also, the “percentage damage caused to the plant, IPOHE” value with IPOHE [2] and in the test with IPOHE [6] was 1 (1=0-20%) throughout. Further, the “percentage damage caused to the plant, ECHCG” value in test [3] and in test [7] was 1 (1=0-20%) throughout. The “percentage damage caused to the plant, AMARE” value is on record as 1 (1=0-20%) in test [4] and 2 (2=21-40%) in test [8].
As to `CS(=O)(=O)c1ccc(-c2nc(C(F)(F)F)cn2Cc2ncc(Cl)cn2)s1` [Compound 1.003], the “percentage damage caused to the plant, AMAPA” value in the test on AMAPA [1] was 4 (4=61-80%); in the test with AMAPA [5] it was 5 (5=81-100%). In addition, the results for the “percentage damage caused to the plant, IPOHE” value with IPOHE [2] and with IPOHE [6] were 4 (4=61-80%) and 5 (5=81-100%), respectively. The “percentage damage caused to the plant, ECHCG” value in test [3] and in test [7] was 5 (5=81-100%) each time. In addition, the “percentage damage caused to the plant, AMARE” value in test [4] is reported as 4 (4=61-80%); in test [8] it was 5 (5=81-100%).
Turning to `Cn1ccc(-c2nc(C(F)(F)F)cn2Cc2ncc(Cl)cn2)n1` [Compound 1.004], the “percentage damage caused to the plant, AMAPA” value in the test with AMAPA [1] and in the test on AMAPA [5] was 1 (1=0-20%) throughout. Further, the “percentage damage caused to the plant, IPOHE” value in the test with IPOHE [2] and in the test with IPOHE [6] was 1 (1=0-20%) in each case. The “percentage damage caused to the plant, ECHCG” value in test [3] and in test [7] was 1 (1=0-20%) in each case. Besides, the “percentage damage caused to the plant, AMARE” value in test [4] and in test [8] was 1 (1=0-20%) throughout.
For `Cc1nnsc1-c1nc(C(F)(F)F)cn1Cc1ncc(Cl)cn1` [Compound 1.007], the figures for the “percentage damage caused to the plant, AMAPA” value with AMAPA [1] and with AMAPA [5] were 4 (4=61-80%) and 5 (5=81-100%), respectively. The results for the “percentage damage caused to the plant, IPOHE” value in the test with IPOHE [2] and in the test on IPOHE [6] were 4 (4=61-80%) and 5 (5=81-100%), respectively. Besides, the “percentage damage caused to the plant, ECHCG” value in test [3] is on record as 2 (2=21-40%); in test [7], 4 (4=61-80%). For the same compound, the “percentage damage caused to the plant, AMARE” value in test [4] and in test [8] was 5 (5=81-100%) in each case.
For `FC(F)(F)c1cn(Cc2ncc(Cl)cn2)c(-c2csc(Cl)n2)n1` [Compound 1.009], the “percentage damage caused to the plant, AMAPA” value is 2 (2=21-40%) in the test on AMAPA [1] and 3 (3=41-60%) with AMAPA [5]. The “percentage damage caused to the plant, IPOHE” value with IPOHE [2] and in the test on IPOHE [6] was 1 (1=0-20%) in each case. In addition, the “percentage damage caused to the plant, ECHCG” value in test [3] and in test [7] was 1 (1=0-20%) throughout. The entries for the “percentage damage caused to the plant, AMARE” value in test [4] and in test [8] were 2 (2=21-40%) and 4 (4=61-80%), respectively.
As for `FC(F)(F)c1cn(Cc2ncc(Cl)cn2)c(-c2cc(Cl)cs2)n1` [Compound 1.010], the “percentage damage caused to the plant, AMAPA” value in the test on AMAPA [1] is reported as 4 (4=61-80%); in the test on AMAPA [5], 5 (5=81-100%). Moreover, the “percentage damage caused to the plant, IPOHE” value in the test on IPOHE [2] and in the test on IPOHE [6] was 4 (4=61-80%) each time. Also, the “percentage damage caused to the plant, ECHCG” value in test [3] is 4 (4=61-80%); in test [7], 5 (5=81-100%). The entries for the “percentage damage caused to the plant, AMARE” value in test [4] and in test [8] were 4 (4=61-80%) and 5 (5=81-100%), respectively.
Take `Cc1ccc(-c2nc(C(F)(F)F)cn2Cc2ncc(Cl)cn2)s1` [Compound 1.011]: the “percentage damage caused to the plant, AMAPA” value in the test on AMAPA [1] is 4 (4=61-80%); in the test on AMAPA [5], 5 (5=81-100%). Besides, the “percentage damage caused to the plant, IPOHE” value in the test with IPOHE [2] is on record as 2 (2=21-40%); in the test with IPOHE [6], 5 (5=81-100%). In addition, the entries for the “percentage damage caused to the plant, ECHCG” value in test [3] and in test [7] were 4 (4=61-80%) and 5 (5=81-100%), respectively. Also, the “percentage damage caused to the plant, AMARE” value was 4 (4=61-80%) in test [4] and 5 (5=81-100%) in test [8].
Consider `FC(F)(F)c1cn(Cc2ncc(Cl)cn2)c(-c2cnn(C3CC3)c2)n1` [Compound 1.015], for which the results for the “percentage damage caused to the plant, AMAPA” value with AMAPA [1] and with AMAPA [5] were 4 (4=61-80%) and 5 (5=81-100%), respectively. For the same compound, the “percentage damage caused to the plant, IPOHE” value in the test with IPOHE [2] and in the test with IPOHE [6] was 5 (5=81-100%) in each case. Further, the figures for the “percentage damage caused to the plant, ECHCG” value in test [3] and in test [7] were 4 (4=61-80%) and 5 (5=81-100%), respectively. The “percentage damage caused to the plant, AMARE” value in test [4] and in test [8] was 5 (5=81-100%) throughout.
As for `FC(F)n1cc(-c2nc(C(F)(F)F)cn2Cc2ncc(Cl)cn2)cn1` [Compound 1.017], the “percentage damage caused to the plant, AMAPA” value with AMAPA [1] and in the test on AMAPA [5] was 5 (5=81-100%) throughout. For the same compound, the “percentage damage caused to the plant, IPOHE” value with IPOHE [2] and in the test with IPOHE [6] was 5 (5=81-100%) each time. Also, the “percentage damage caused to the plant, ECHCG” value in test [3] and in test [7] was 5 (5=81-100%) throughout. The “percentage damage caused to the plant, AMARE” value in test [4] and in test [8] was 5 (5=81-100%) each time.
As to `Cc1nc(-c2nc(C(F)(F)F)cn2Cc2ncc(Cl)cn2)co1` [Compound 1.018], in the test on AMAPA [1], the “percentage damage caused to the plant, AMAPA” value is on record as 1 (1=0-20%). Also, the “percentage damage caused to the plant, IPOHE” value in the test on IPOHE [2] is recorded as 2 (2=21-40%); in the test on IPOHE [6], 1 (1=0-20%). Also, the “percentage damage caused to the plant, ECHCG” value in test [3] and in test [7] was 1 (1=0-20%) each time. Besides, the “percentage damage caused to the plant, AMARE” value in test [4] and in test [8] was 2 (2=21-40%) throughout.
As to `FC(F)(F)c1cn(Cc2ncc(Cl)cn2)c(-c2ncco2)n1` [Compound 1.019], the “percentage damage caused to the plant, AMAPA” value in the test on AMAPA [1] and in the test with AMAPA [5] was 1 (1=0-20%) each time. Further, the “percentage damage caused to the plant, IPOHE” value in the test with IPOHE [2] and with IPOHE [6] was 1 (1=0-20%) throughout. The “percentage damage caused to the plant, ECHCG” value in test [3] and in test [7] was 1 (1=0-20%) throughout. Further, the “percentage damage caused to the plant, AMARE” value in test [4] and in test [8] was 1 (1=0-20%) in each case.
With `FC(F)(F)c1cn(Cc2ncc(Cl)cn2)c(-c2cnco2)n1` [Compound 1.020], the figures for the “percentage damage caused to the plant, AMAPA” value with AMAPA [1] and with AMAPA [5] were 2 (2=21-40%) and 3 (3=41-60%), respectively. In addition, the “percentage damage caused to the plant, IPOHE” value in the test on IPOHE [2] and with IPOHE [6] was 4 (4=61-80%) each time. Moreover, the “percentage damage caused to the plant, ECHCG” value in test [3] and in test [7] was 1 (1=0-20%) in each case. The “percentage damage caused to the plant, AMARE” value is listed as 3 (3=41-60%) in test [4] and 5 (5=81-100%) in test [8].
Consider `FC(F)(F)c1cn(Cc2ncc(Cl)cn2)c(-c2nccs2)n1` [Compound 1.022], for which the “percentage damage caused to the plant, AMAPA” value in the test on AMAPA [1] and with AMAPA [5] was 1 (1=0-20%) throughout. The “percentage damage caused to the plant, IPOHE” value in the test on IPOHE [2] and in the test with IPOHE [6] was 1 (1=0-20%) throughout. In addition, the “percentage damage caused to the plant, ECHCG” value in test [3] and in test [7] was 1 (1=0-20%) each time. Also, in test [4], the “percentage damage caused to the plant, AMARE” value was 1 (1=0-20%).
Consider `FC(F)(F)c1cn(Cc2ncc(Cl)cn2)c(-c2cscn2)n1` [Compound 1.023], for which the “percentage damage caused to the plant, AMAPA” value with AMAPA [1] and with AMAPA [5] was 1 (1=0-20%) in each case. Further, the results for the “percentage damage caused to the plant, IPOHE” value in the test with IPOHE [2] and in the test with IPOHE [6] were 2 (2=21-40%) and 1 (1=0-20%), respectively. The “percentage damage caused to the plant, ECHCG” value in test [3] and in test [7] was 1 (1=0-20%) in each case. In addition, the “percentage damage caused to the plant, AMARE” value in test [4] is 1 (1=0-20%).
`FC(F)Oc1cccc(Cn2cc(C(F)(F)F)nc2-c2ccc(Cl)s2)n1` [Compound 1.048]: the “percentage damage caused to the plant, AMAPA” value in the test with AMAPA [1] and in the test on AMAPA [5] was 1 (1=0-20%) throughout. In the test with IPOHE [2], the “percentage damage caused to the plant, IPOHE” value was 1 (1=0-20%). The “percentage damage caused to the plant, ECHCG” value in test [3] and in test [7] was 1 (1=0-20%) each time. Moreover, the “percentage damage caused to the plant, AMARE” value in test [4] and in test [8] was 1 (1=0-20%) each time.
